{
  "source": "patent US12263248B2",
  "about": "“Compounds and compositions for intracellular delivery of therapeutic agents” (ModernaTX, Inc., priority 2018, dated 2025)",
  "key": {"sC5b-9": {"tested_on": "sC5b-9", "assay": "Complement activation in vitro (sC5b-9 levels)", "format": "cell-based", "settings": "human cells contacted in vitro", "method_in_brief": "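Human cells exposed in vitro to nanoparticle compositions, with the soluble terminal complement complex sC5b-9 measured as a marker of complement activation.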"}, "hEPO mRNA [1]": {"tested_on": "hEPO mRNA", "assay": "hEPO expression and cytokine induction after intravenous administration to mice", "format": "in vivo", "settings": "mice, intravenous, 0.5 mpk", "description": "The expression of hEPO and cytokine induction in mice intravenously administered a nanoparticle composition at a dose of 0.5 mpk were measured at 3, 6, and 24 hours. […] The expression of hEPO in mice intramuscularly administered a nanoparticle composition from Table 1B at a dose of 0.01 mpk were measured at 3, 6, and 24 hours.\nBlood collection and analysis for hEPO. Blood was collected from mice or rats via the tail vein and hEPO concentrations were determined using a hEPO ELISA assay."}, "[2]": {"assay": "ALT and AST after intravenous administration to rat (Table 19A)", "format": "in vivo", "description": "Table 19A summarizes the hEPO expression, IP-10 induction, liver and spleen levels, and alanine aminotransferase (ALT) and aspartate aminotransferase (AST) measured upon intravenous administration of formulations including Compounds 48, 49, and 50 to rat at 0.2 and 2 mpk and hEPO mRNA. hEPO concentrations were measured 6 hours after administration, while cytokine induction and liver and spleen levels were measured 48 hours after administration. hEPO and IP-10 concentrations are presented in pg/ml, while liver levels are provided in ng/g. ALT and AST levels are presented in international units."}, "[3]": {"assay": "Residual lipid levels in rat liver and spleen (UPLC-MS)", "format": "in vivo", "method_in_brief": "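Rats received a single intravenous dose of lipid nanoparticle composition, and liver tissue was later collected to quantify residual lipid. Weighed tissue was homogenized in Milli-Q water (900 μL per 100 mg tissue) using an Omni probe homogenizer. 50 μL aliquots were mixed with 400 μL spiking solution, vortexed, centrifuged, and analyzed by UPLC on a C8 column with positive-mode ESI detection on a Sciex API5500 mass spectrometer.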"}, "[4]": {"assay": "Lipid clearance: lipid level in mouse liver tissue (LC-MS/MS)", "format": "in vivo", "settings": "for % Dose Remaining in Liver 6 h: Table 3D", "protocol": "Quantification of Lipid by LC-MS/MS: Liver samples were homogenized following addition of 19 eq. (w/v) of water (DF=20). Protein was precipitated and analyzed against calibration standards prepared in matching blank. Chromatographic separation and quantification was accomplished with a LC-MS/MS System. Samples were injected and separated via HPLC A triple-quadrupole MS/MS system operated in positive ion mode was used for signal detection."}, "hEPO mRNA [5]": {"tested_on": "hEPO mRNA", "assay": "hEPO expression after intravenous administration to rats", "format": "in vivo, rat", "settings": "for Lipid/MC3 hEPO expression: 6 hours after administration", "method_in_brief": "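Rats dosed intravenously once with nanoparticle composition, 0.2 or 2.0 mpk, formulated by the standard MC3 method. Tail-vein blood sampled at 6 h or at time points from 0.25 to 48 h. hEPO measured by ELISA.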"}, "[6]": {"settings": "rat, intravenous, 0.2 mpk, 48 hours, Table 19A"}, "[7]": {"settings": "rat, intravenous, 2 mpk, 48 hours, Table 19A"}},
  "note": "Marks after values point to notes of the source that are not given here.",
  "data": [
    {"smiles": "CCCCC/C=C\\C/C=C\\CCCCCCCCC(CCCCCCCC/C=C\\C/C=C\\CCCCC)OC(=O)CCCN(C)C", "note": "[MC3, DLin-MC3-DMA, reference compound]", "values": [
      {"measurement": "Fold increase in sC5b-9 levels versus saline", "setting": "sC5b-9", "result": 0.73},
      {"measurement": "hEPO expression 3 h", "setting": "hEPO mRNA [1]; 3 h", "result": "1.57e+06", "unit": "pg/mL"},
      {"measurement": "Average hEPO concentration (pg/ml, 6 h)", "setting": "hEPO mRNA [1]; 6 h", "result": "1.83e+06", "unit": "pg/mL"},
      {"measurement": "Cytokine expression IL-6 (6 h)", "setting": "hEPO mRNA [1]; 6 h", "result": 19.85, "unit": "pg/mL"},
      {"measurement": "Cytokine expression IP-10 (6 h)", "setting": "hEPO mRNA [1]; 6 h", "result": 117.94, "unit": "pg/mL"},
      {"measurement": "hEPO expression 6 h", "setting": "hEPO mRNA [1]; 6 h", "result": "1.83e+06", "unit": "pg/mL"},
      {"measurement": "Fold increase in hEPO concentration relative to MC3", "setting": "hEPO mRNA [1]; 6 h, Table 12", "result": 1},
      {"measurement": "hEPO expression 24 h", "setting": "hEPO mRNA [1]; 24 h", "result": 810000, "unit": "pg/mL"},
      {"measurement": "ALT", "setting": "[2]; 0.2 mpk", "result": 63.6, "unit": "international units"},
      {"measurement": "AST", "setting": "[2]; 0.2 mpk", "result": 134.8, "unit": "international units"},
      {"measurement": "ALT", "setting": "[2]; 2 mpk", "result": 79.6, "unit": "international units"},
      {"measurement": "AST", "setting": "[2]; 2 mpk", "result": 139.0, "unit": "international units"},
      {"measurement": "% dose remaining Rat liver tissue, 48 h", "setting": "[3]; Sprague Dawley rat liver 48 h after 2 mg/kg bolus dose mRNA", "result": "61^e %"},
      {"measurement": "% dose remaining, liver, 24 h", "setting": "[3]; Table 19B, liver, 24 h", "result": 44, "unit": "%"},
      {"measurement": "% lipid remaining in liver after 48 hours", "setting": "[3]; liver, 48 hours", "result": 87, "unit": "%"},
      {"measurement": "Liver level", "setting": "[3]; [6]", "result": 11300, "unit": "ng/g"},
      {"measurement": "Spleen level", "setting": "[3]; [6]", "result": 0.74, "unit": "ng/g"},
      {"measurement": "Liver level", "setting": "[3]; [7]", "result": 140520, "unit": "ng/g"},
      {"measurement": "Spleen level", "setting": "[3]; [7]", "result": 0.65, "unit": "ng/g"},
      {"measurement": "Liver level", "setting": "[3]; rats, 0.2 mpk, after 48 h", "result": 25033, "unit": "ng/g"},
      {"measurement": "Spleen level", "setting": "[3]; rats, 0.2 mpk, after 48 h", "result": 9440, "unit": "ng/g"},
      {"measurement": "% Lipid Remaining in liver, 48 h", "setting": "[3]; rats, 2 mpk, 48 h, assuming 300 g rat and 15 g liver", "result": 87, "unit": "%"},
      {"measurement": "Liver level", "setting": "[3]; rats, 2 mpk, after 48 h", "result": 285333, "unit": "ng/g"},
      {"measurement": "Spleen level", "setting": "[3]; rats, 2 mpk, after 48 h", "result": 129000, "unit": "ng/g"},
      {"measurement": "lipid remained in the liver after 48 hours", "setting": "[3]; rats, i.v., 0.2 mpk or 2.0 mpk", "result": "greater than 60%"},
      {"measurement": "% remaining dose in liver, 48 h", "setting": "[3]; rats, intravenous, 2.0 mpk, 48 h", "result": 74, "unit": "%"},
      {"measurement": "% dose remaining Mouse liver tissue, 24 h", "setting": "[4]; CD-1 mouse liver 24 h after 0.5 mg/kg bolus dose mRNA, n = 5 ± S.D.", "result": "71 ± 27", "unit": "%"},
      {"measurement": "% Dose Remaining in Liver 6 h", "setting": "[4]; second column (head also says 6 h), intravenous", "result": 54, "unit": "%"},
      {"measurement": "% Dose Remaining in Liver 6 h", "setting": "[4]; intravenous", "result": 80, "unit": "%"},
      {"measurement": "Mouse liver tissue level (ng/g) 6 h", "setting": "[4]; Table 3E, intravenous, 6 h", "result": 85400, "unit": "ng/g"},
      {"measurement": "Mouse liver tissue level (ng/g) 24 h", "setting": "[4]; Table 3E, intravenous, 24 h", "result": 67433, "unit": "ng/g"},
      {"measurement": "% Remaining dose at 6 h", "setting": "[4]; Table 3E, mouse liver, 6 h", "result": ">98", "unit": "%"},
      {"measurement": "% Remaining dose at 24 h", "setting": "[4]; Table 3E, mouse liver, 24 h", "result": 79.7, "unit": "%"},
      {"measurement": "Lipid/MC3 hEPO expression", "setting": "hEPO mRNA [5]; 0.2 mpk dose to rat", "result": 1},
      {"measurement": "Lipid/MC3 hEPO expression", "setting": "hEPO mRNA [5]; 2 mpk dose to rat", "result": 1},
      {"measurement": "AUC (hEPO)", "setting": "hEPO mRNA [5]; Table 19B", "result": "3.46e+07", "unit": "pg·h/mL"},
      {"measurement": "[hEPO]", "setting": "hEPO mRNA [5]; Table 19B, species, dose and time not given", "result": 14800, "unit": "pg/mL"},
      {"measurement": "hEPO expression", "setting": "hEPO mRNA [5]; rat, 6 h, 2 mpk, i.v.", "result": "1.33e+07", "unit": "pg/mL"},
      {"measurement": "hEPO expression 0.25 h", "setting": "hEPO mRNA [5]; rat, intravenous, 0.2 mpk, 0.25 h", "result": 0, "unit": "pg/mL"},
      {"measurement": "hEPO expression 0.5 h", "setting": "hEPO mRNA [5]; rat, intravenous, 0.2 mpk, 0.5 h", "result": 42457, "unit": "pg/mL"},
      {"measurement": "hEPO expression 1 h", "setting": "hEPO mRNA [5]; rat, intravenous, 0.2 mpk, 1 h", "result": 93720, "unit": "pg/mL"},
      {"measurement": "hEPO expression 2 h", "setting": "hEPO mRNA [5]; rat, intravenous, 0.2 mpk, 2 h", "result": 524093, "unit": "pg/mL"},
      {"measurement": "hEPO expression 4 h", "setting": "hEPO mRNA [5]; rat, intravenous, 0.2 mpk, 4 h", "result": 601307, "unit": "pg/mL"},
      {"measurement": "hEPO expression", "setting": "hEPO mRNA [5]; rat, intravenous, 0.2 mpk, 6 hours", "result": "7.68e+06", "unit": "pg/mL"},
      {"measurement": "hEPO expression 8 h", "setting": "hEPO mRNA [5]; rat, intravenous, 0.2 mpk, 8 h", "result": 1536833, "unit": "pg/mL"},
      {"measurement": "hEPO expression 24 h", "setting": "hEPO mRNA [5]; rat, intravenous, 0.2 mpk, 24 h", "result": 703619, "unit": "pg/mL"},
      {"measurement": "hEPO expression 48 h", "setting": "hEPO mRNA [5]; rat, intravenous, 0.2 mpk, 48 h", "result": 64687, "unit": "pg/mL"},
      {"measurement": "hEPO expression", "setting": "hEPO mRNA [5]; rat, intravenous, 2 mpk, 6 hours", "result": "9.29e+06", "unit": "pg/mL"},
      {"measurement": "Lipid/MC3 hEPO conc. ratio 0.2 mpk", "setting": "hEPO mRNA [5]; rats, intravenous, 0.2 mpk, 6 hours", "result": 1},
      {"measurement": "Lipid/MC3 hEPO conc. ratio 2 mpk", "setting": "hEPO mRNA [5]; rats, intravenous, 2 mpk, 6 hours", "result": 1}
    ]}
  ]
}
